Data: paper PMC1838524 (The Journal of biological chemistry, 2006)

Target: T1, Vam7p PX domain (Saccharomyces cerevisiae, UniProt P32912)
T1 sequence (P32912 2-122): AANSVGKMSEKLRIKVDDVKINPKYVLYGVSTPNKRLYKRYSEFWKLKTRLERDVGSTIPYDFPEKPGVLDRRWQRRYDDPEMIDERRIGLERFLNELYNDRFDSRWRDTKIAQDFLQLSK
Assay: 1H-15N HSQC NMR titration
Assay type: binding

## CCCCCC(=O)OC[C@H](COP(=O)(O)OC[C@H](N)C(=O)O)OC(=O)CCCCC [C6-PtdSer, 1,2-dicaproyl-sn-glycero-3-[phospho-L-serine]]
  1H-15N HSQC NMR titration (chemical shift perturbation): NMR titration of soluble dicaproyl (C6)-PtdSer into the PX domain
